# Reference: ChEMBL document CHEMBL4715829, “Heterodimeric Rifampicin-Tobramycin conjugates break intrinsic resistance of Pseudomonas aeruginosa to doxycycline and chloramphenicol in vitro and in a Galleria mellonella in vivo model” (Eur J Med Chem, 2019)
# What was measured:
# [1] = test system: Pseudomonas aeruginosa; experiment: Antibacterial activity against wild type Pseudomonas aeruginosa PAO1 assessed as reduction in bacterial growth by measuring chloramphenicol MIC at 8 ug/ml incubated for 18 hrs in presence of chloramphenicol by broth microdilution assay (reference value: 32 ug/ml); assay type: functional; settings: dose 8 µg/ml
# [2] = test system: Pseudomonas aeruginosa; experiment: Antibacterial activity against Pseudomonas aeruginosa 259-96918 assessed as reduction in bacterial growth by measuring doxycycline MIC at 2 ug/ml incubated for 18 hrs in presence of doxycycline by broth microdilution assay (reference value: 32 ug/ml); assay type: functional; settings: dose 2 µg/ml
# [3] = test system: Pseudomonas aeruginosa; experiment: Antibacterial activity against Pseudomonas aeruginosa 100036 assessed as fractional inhibitory concentration index incubated for 18 hrs in presence of rifampicin by broth microdilution assay; assay type: functional
# [4] = test system: Pseudomonas aeruginosa; experiment: Antibacterial activity against Pseudomonas aeruginosa 264-101354 assessed as potentiation of doxycycline-induced antibacterial activity by measuring doxycycline MIC at 9.8 uM incubated for 18 hrs in presence of doxycycline by broth microdilution assay (reference value: 64 ug/ml); assay type: functional
# [5] = test system: Pseudomonas aeruginosa; experiment: Potentiation of doxycycline-induced antibacterial activity against Pseudomonas aeruginosa 262-101856 assessed as fold change in doxycycline MIC at 9.8 uM incubated for 18 hrs in presence of doxycycline by broth microdilution assay relative to control; assay type: functional
# [6] = test system: Pseudomonas aeruginosa; experiment: Antibacterial activity against Pseudomonas aeruginosa 260-97103 infected in Galleria mellonella larvae assessed as survival of larvae at 75 mg/kg treated at 3 hrs post-infection in presence of doxycycline and measured after 18 hrs relative to control; assay type: functional
# [7] = test system: Pseudomonas aeruginosa; experiment: Antibacterial activity against Pseudomonas aeruginosa 100036 assessed as fractional inhibitory concentration index incubated for 18 hrs in presence of minocycline by broth microdilution assay; assay type: functional
# [8] = test system: Acinetobacter baumannii; experiment: Potentiation of chloramphenicol-induced antibacterial activity against Acinetobacter baumannii ATCC 17978 assessed as fold change in chloramphenicol MIC at 9.8 uM incubated for 18 hrs in presence of chloramphenicol by broth microdilution assay relative to control; assay type: functional
# [9] = test system: Klebsiella pneumoniae; experiment: Potentiation of chloramphenicol-induced antibacterial activity against Klebsiella pneumoniae ATCC 16381 assessed as fold change in chloramphenicol MIC at 9.8 uM incubated for 18 hrs in presence of chloramphenicol by broth microdilution assay relative to control; assay type: functional
# [10] = test system: Pseudomonas aeruginosa; experiment: Antibacterial activity against Pseudomonas aeruginosa 100036 assessed as fractional inhibitory concentration incubated for 18 hrs in presence of minocycline by broth microdilution assay; assay type: functional
# [11] = test system: Pseudomonas aeruginosa; experiment: Antibacterial activity against Pseudomonas aeruginosa 114228 assessed as fractional inhibitory concentration index incubated for 18 hrs in presence of minocycline by broth microdilution assay; assay type: functional
# [12] = test system: Pseudomonas aeruginosa; experiment: Antibacterial activity against Pseudomonas aeruginosa 260-97103 assessed as fractional inhibitory concentration incubated for 18 hrs in presence of minocycline by broth microdilution assay; assay type: functional
# [13] = test system: Pseudomonas aeruginosa; experiment: Antibacterial activity against Pseudomonas aeruginosa 260-97103 infected in Galleria mellonella larvae assessed as survival of larvae treated at 3 hrs post-infection in presence of chloramphenicol and measured every 6 hrs for 36 hrs; assay type: functional, organism-based; settings: dose 75-100 mg/kg
# [14] = test system: Pseudomonas aeruginosa; experiment: Antibacterial activity against Pseudomonas aeruginosa 262-101856 assessed as fractional inhibitory concentration index incubated for 18 hrs in presence of minocycline by broth microdilution assay; assay type: functional
# [15] = test system: Pseudomonas aeruginosa; experiment: Antibacterial activity against Pseudomonas aeruginosa 114228 assessed as fractional inhibitory concentration index incubated for 18 hrs in presence of rifampicin by broth microdilution assay; assay type: functional
# [16] = test system: Pseudomonas aeruginosa; experiment: Antibacterial activity against Pseudomonas aeruginosa 91433 assessed as potentiation of chloramphenicol-induced antibacterial activity by measuring chloramphenicol MIC at 9.8 uM incubated for 18 hrs in presence of chloramphenicol by broth microdilution assay (reference value: 8 ug/ml); assay type: functional
# [17] = test system: Pseudomonas aeruginosa; experiment: Antibacterial activity against Pseudomonas aeruginosa 260-97103 infected in Galleria mellonella larvae assessed as survival of larvae at 100 mg/kg treated at 3 hrs post-infection in presence of chloramphenicol and measured after 18 hrs relative to control; assay type: functional
# [18] = test system: Pseudomonas aeruginosa; experiment: Antibacterial activity against Pseudomonas aeruginosa 114228 assessed as fractional inhibitory concentration index incubated for 18 hrs in presence of tigecycline by broth microdilution assay; assay type: functional
# [19] = test system: Pseudomonas aeruginosa; experiment: Antibacterial activity against Pseudomonas aeruginosa 262-101856 assessed as fractional inhibitory concentration incubated for 18 hrs in presence of minocycline by broth microdilution assay; assay type: functional
# [20] = test system: Pseudomonas aeruginosa; experiment: Potentiation of chloramphenicol-induced antibacterial activity against Pseudomonas aeruginosa 101885 assessed as fold change in chloramphenicol MIC at 9.8 uM incubated for 18 hrs in presence of chloramphenicol by broth microdilution assay relative to control; assay type: functional
# [21] = test system: Escherichia coli; experiment: Potentiation of doxycycline-induced antibacterial activity against Escherichia coli ATCC 25922 assessed as fold change in doxycycline MIC at 9.8 uM incubated for 18 hrs in presence of doxycycline by broth microdilution assay relative to control; assay type: functional
# [22] = test system: Enterobacter cloacae; experiment: Potentiation of chloramphenicol-induced antibacterial activity against Enterobacter cloacae ATCC 117029 assessed as fold change in chloramphenicol MIC at 9.8 uM incubated for 18 hrs in presence of chloramphenicol by broth microdilution assay relative to control; assay type: functional
# [23] = test system: Pseudomonas aeruginosa; experiment: Antibacterial activity against Pseudomonas aeruginosa 91433 assessed as fractional inhibitory concentration incubated for 18 hrs in presence of rifampicin by broth microdilution assay; assay type: functional
# [24] = test system: Escherichia coli; experiment: Potentiation of chloramphenicol-induced antibacterial activity against Escherichia coli ATCC 25922 assessed as fold change in chloramphenicol MIC at 7.6 uM incubated for 18 hrs in presence of chloramphenicol by broth microdilution assay relative to control; assay type: functional
# [25] = test system: Escherichia coli; experiment: Potentiation of doxycycline-induced antibacterial activity against Escherichia coli ATCC 25922 assessed as fold change in doxycycline MIC at 7.6 uM incubated for 18 hrs in presence of doxycycline by broth microdilution assay relative to control; assay type: functional
# [26] = test system: Pseudomonas aeruginosa; experiment: Antibacterial activity against Pseudomonas aeruginosa 259-96918 assessed as potentiation of chloramphenicol-induced antibacterial activity by measuring chloramphenicol MIC at 7.6 uM incubated for 18 hrs in presence of chloramphenicol by broth microdilution assay (reference value: 1024 ug/ml); assay type: functional
# [27] = test system: Pseudomonas aeruginosa; experiment: Potentiation of chloramphenicol-induced antibacterial activity against Pseudomonas aeruginosa 264-101354 assessed as fold change in chloramphenicol MIC at 7.6 uM incubated for 18 hrs in presence of chloramphenicol by broth microdilution assay relative to control; assay type: functional
# [28] = test system: Pseudomonas aeruginosa; experiment: Antibacterial activity against Pseudomonas aeruginosa 264-101354 assessed as potentiation of chloramphenicol-induced antibacterial activity by measuring chloramphenicol MIC at 7.6 uM incubated for 18 hrs in presence of chloramphenicol by broth microdilution assay (reference value: 4096 ug/ml); assay type: functional
# [29] = test system: Pseudomonas aeruginosa; experiment: Potentiation of chloramphenicol-induced antibacterial activity against Pseudomonas aeruginosa 91433 assessed as fold change in chloramphenicol MIC at 7.6 uM incubated for 18 hrs in presence of chloramphenicol by broth microdilution assay relative to control; assay type: functional
# [30] = test system: Pseudomonas aeruginosa; experiment: Antibacterial activity against Pseudomonas aeruginosa 259-96918 assessed as fractional inhibitory concentration incubated for 18 hrs in presence of doxycycline by broth microdilution assay; assay type: functional
# [31] = test system: Pseudomonas aeruginosa; experiment: Antibacterial activity against Pseudomonas aeruginosa 259-96918 assessed as reduction in bacterial growth by measuring chloramphenicol MIC at 8 ug/ml incubated for 18 hrs in presence of chloramphenicol by broth microdilution assay (reference value: 1024 ug/ml); assay type: functional; settings: dose 8 µg/ml
smiles,measurement,setting,value
CO[C@H]1/C=C/O[C@@]2(C)Oc3c(C)c(O)c4c(O)c(c(/C=N/N5CCN(C)CC5)c(O)c4c3C2=O)NC(=O)/C(C)=C\C=C\[C@H](C)[C@H](O)[C@@H](C)[C@@H](O)[C@@H](C)[C@H](OC(C)=O)[C@@H]1C [RIFAMPIN],MIC,[1],32 µg/mL
same,MIC,[2],32 µg/mL
CO[C@H]1/C=C/O[C@@]2(C)Oc3c(C)c(O)c4c(O)c(c(/C=N/N5CCN(Cc6cn(CCCCCCO[C@@H]7[C@@H](O[C@H]8O[C@H](CO)[C@@H](O)[C@H](N)[C@H]8O)[C@H](N)C[C@H](N)[C@H]7O[C@H]7O[C@H](CN)[C@@H](O)C[C@H]7N)nn6)CC5)c(O)c4c3C2=O)NC(=O)/C(C)=C\C=C\[C@H](C)[C@H](O)[C@@H](C)[C@@H](O)[C@@H](C)[C@H](OC(C)=O)[C@@H]1C.Cl.Cl.Cl.Cl.Cl,fractional inhibitory concentration index (FICI),[3],0.31
same,MIC,[4],0.125 µg/mL
same,fold change (FC),[5],4
same,survival at 75 mg/kg,[6],75%
same,fractional inhibitory concentration index (FICI),[7],0.13
same,fold change (FC),[8],0
same,fold change (FC),[9],0
same,FIC,[10],0.063
same,fractional inhibitory concentration index (FICI),[11],<0.28
same,FIC,[12],<0.125
same,Activity,[13],Dose-dependent effect
same,fractional inhibitory concentration index (FICI),[14],<0.09
same,fractional inhibitory concentration index (FICI),[15],<0.53
same,MIC,[16],2 µg/mL
same,survival at 100 mg/kg,[17],72%
same,fractional inhibitory concentration index (FICI),[18],<0.53
same,FIC,[19],<0.063
same,fold change (FC),[20],4
same,fold change (FC),[21],0
same,fold change (FC),[22],0
same,FIC,[23],<0.125
CO[C@H]1/C=C/O[C@@]2(C)Oc3c(C)c(O)c4c(O)c(c(/C=N/N5CCN(Cc6cn(CCCCCCCCCCCCO[C@@H]7[C@@H](O[C@H]8O[C@H](CO)[C@@H](O)[C@H](N)[C@H]8O)[C@H](N)C[C@H](N)[C@H]7O[C@H]7O[C@H](CN)[C@@H](O)C[C@H]7N)nn6)CC5)c(O)c4c3C2=O)NC(=O)/C(C)=C\C=C\[C@H](C)[C@H](O)[C@@H](C)[C@@H](O)[C@@H](C)[C@H](OC(C)=O)[C@@H]1C.O=C(O)C(F)(F)F.O=C(O)C(F)(F)F.O=C(O)C(F)(F)F.O=C(O)C(F)(F)F.O=C(O)C(F)(F)F,fold change (FC),[24],0
same,fold change (FC),[25],0
same,MIC,[26],512 µg/mL
same,fold change (FC),[27],4
same,MIC,[28],128 µg/mL
same,fold change (FC),[29],4
NC[C@H]1O[C@H](O[C@H]2[C@H](O)[C@@H](O[C@H]3O[C@H](CO)[C@@H](O)[C@H](N)[C@H]3O)[C@H](N)C[C@@H]2N)[C@H](N)C[C@@H]1O [TOBRAMYCIN],FIC,[30],0.125
same,MIC,[31],1020 µg/mL
